Assay results as given in ChEMBL document CHEMBL3822358 (J Med Chem, 2016).
In brackets after ≈: the same amount, converted by molar mass. Blank lines part the entries; values can stand above or below the compound they belong to. Activity calls are given as the source filed them. The calls are words filed in the database; no cut-off is given here.

What was measured:
[1] = Cmax in CD rat at 10 mg/kg, po by LC-MS/MS analysis; type: ADME, organism-based; parameters: dose 10 mg/kg, route oral; conditions: in vivo
animal or person [2] = conditions: Homo sapiens, KARPAS-299, po, 312 h, read-out: TGI
Description: Antitumor activity against human KARPAS299 cells expressing NMP-ALK fusion protein xenografted in SCID/beige mouse assessed as tumor growth inhibition at 50 mg/kg, po administered once daily for 13 days relative to untreated control

[3] = Half life in CD rat at 10 mg/kg, po by LC-MS/MS analysis; type: ADME, organism-based; conditions: in vivo
Homo sapiens [4] = species on record: Homo sapiens; assay: Inhibition of human EML4/ALK F1174C/V mutant
[5] = molecular target: T1, ALK tyrosine kinase receptor (Homo sapiens, UniProt Q9UM73); assay: Inhibition of ALK phosphorylation in mouse xenografted with human KARPAS299 cells assessed as p-ALK level at 25 mg/kg, po administered as single dose measured after 24 hrs relative to 2 hrs vehicle-treated tumor; type: organism-based; parameters: scale not given: the % may be the effect or the level left; conditions: KARPAS-299
Target sequence in this assay (Q9UM73 19-1620 limits assumed): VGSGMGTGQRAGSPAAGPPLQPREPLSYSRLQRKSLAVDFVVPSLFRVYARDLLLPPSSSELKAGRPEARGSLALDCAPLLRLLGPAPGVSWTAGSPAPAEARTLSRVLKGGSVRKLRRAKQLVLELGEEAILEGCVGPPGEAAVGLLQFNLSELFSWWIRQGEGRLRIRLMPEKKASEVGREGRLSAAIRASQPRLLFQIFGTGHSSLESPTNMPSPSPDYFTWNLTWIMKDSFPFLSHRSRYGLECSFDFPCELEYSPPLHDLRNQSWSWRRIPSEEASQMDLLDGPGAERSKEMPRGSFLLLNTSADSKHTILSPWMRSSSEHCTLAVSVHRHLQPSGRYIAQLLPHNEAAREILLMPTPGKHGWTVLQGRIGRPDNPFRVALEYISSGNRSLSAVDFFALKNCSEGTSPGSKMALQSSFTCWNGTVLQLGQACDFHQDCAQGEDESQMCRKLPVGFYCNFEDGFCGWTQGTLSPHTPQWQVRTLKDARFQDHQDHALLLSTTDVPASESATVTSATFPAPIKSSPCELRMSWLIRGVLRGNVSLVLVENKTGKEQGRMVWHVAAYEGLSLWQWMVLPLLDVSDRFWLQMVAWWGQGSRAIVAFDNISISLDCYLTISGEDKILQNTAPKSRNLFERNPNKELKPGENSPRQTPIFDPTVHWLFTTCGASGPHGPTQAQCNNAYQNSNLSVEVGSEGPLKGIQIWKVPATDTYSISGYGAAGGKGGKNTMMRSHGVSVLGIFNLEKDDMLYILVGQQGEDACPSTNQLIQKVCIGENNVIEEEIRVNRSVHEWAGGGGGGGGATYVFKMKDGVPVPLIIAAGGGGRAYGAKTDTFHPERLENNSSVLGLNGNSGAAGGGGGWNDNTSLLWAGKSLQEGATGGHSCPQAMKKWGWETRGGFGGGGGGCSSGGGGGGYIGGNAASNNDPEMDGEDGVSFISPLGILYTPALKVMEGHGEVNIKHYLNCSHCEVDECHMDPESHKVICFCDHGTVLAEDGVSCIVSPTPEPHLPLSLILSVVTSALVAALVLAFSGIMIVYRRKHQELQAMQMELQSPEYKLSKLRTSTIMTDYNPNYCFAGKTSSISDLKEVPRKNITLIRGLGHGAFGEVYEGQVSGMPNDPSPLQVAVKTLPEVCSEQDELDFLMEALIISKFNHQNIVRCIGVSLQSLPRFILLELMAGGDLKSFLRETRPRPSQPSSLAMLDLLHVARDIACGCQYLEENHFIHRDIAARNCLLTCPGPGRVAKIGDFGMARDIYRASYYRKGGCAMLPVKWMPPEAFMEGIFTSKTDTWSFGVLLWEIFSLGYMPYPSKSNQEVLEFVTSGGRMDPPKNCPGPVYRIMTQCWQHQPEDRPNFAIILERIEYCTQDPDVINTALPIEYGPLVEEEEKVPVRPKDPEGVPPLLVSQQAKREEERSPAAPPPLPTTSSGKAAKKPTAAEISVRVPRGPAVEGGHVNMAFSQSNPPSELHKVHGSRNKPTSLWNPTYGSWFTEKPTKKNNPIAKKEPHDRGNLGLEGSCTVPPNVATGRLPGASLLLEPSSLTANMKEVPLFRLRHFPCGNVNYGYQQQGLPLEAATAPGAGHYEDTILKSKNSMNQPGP

[6] = Protein binding in mouse plasma; type: ADME, cell-free; conditions: read-out: PPB (converted)
animal or person [7] = conditions: Homo sapiens, KARPAS-299, po, 312 h, read-out: TGI; remark: listed apart in the source
Description: Antitumor activity against human KARPAS299 cells expressing NMP-ALK fusion protein xenografted in SCID/beige mouse assessed as tumor growth inhibition at 25 mg/kg, po administered once daily for 13 days relative to untreated control

[8] = Half life in mouse at 10 mg/kg, po by LC-MS/MS analysis; type: ADME, organism-based; conditions: in vivo
KARPAS-299 [9] = assay: Antitumor activity against human KARPAS299 cells expressing […] fusion protein xenografted in SCID/beige mouse assessed as tumor regression at 50 mg/kg, po administered once daily for 13 days; type: functional, organism-based
[10] = Tmax in CD rat at 10 mg/kg, po by LC-MS/MS analysis; type: ADME, organism-based; conditions: in vivo
[11] = Lipophilicity, logD of the compound at pH 7; type: physicochemical; conditions: buffer
NCI-H3122 = assay: Antitumor activity against human NCI-H3122 cells expressing EML4-ALK fusion protein xenografted in SCID/beige mouse assessed as tumor regression compound administered as once-daily oral dose for 19 days; type: functional, cell-based
Mus musculus [12] = assay: Toxicity in SCID/beige mouse xenografted with human KARPAS299 cells expressing […] fusion protein at 50 mg/kg, po administered once daily for 13 days; type: organism-based, KARPAS-299; conditions: in vivo, 312 h
[13] = AUC (0 to infinity) in CD rat at 10 mg/kg, po by LC-MS/MS analysis; type: ADME, organism-based; parameters: dose 10 mg/kg, route oral, time infinity; conditions: in vivo
animal or person [14] = conditions: Homo sapiens, KARPAS-299, po, 312 h, read-out: TGI; remark: listed apart in the source
Description: Antitumor activity against human KARPAS299 cells expressing NMP-ALK fusion protein xenografted in SCID/beige mouse assessed as tumor growth inhibition at 10 mg/kg, po administered once daily for 13 days relative to untreated control

Rattus norvegicus [15] = assay: (§1) Half life in CD rat at 3 mg/kg, iv by LC-MS/MS analysis; type: ADME, organism-based; conditions: in vivo
Insulin receptor = Insulin receptor (Homo sapiens, UniProt P06213)
Description: Inhibition of human InsR using myelin basic protein as substrate and [gamma-33P]ATP measured after 1 hr

Mus musculus [16] = assay: Toxicity in SCID/beige mouse xenografted with human NCI-H3122 cells assessed as body weight loss at 10 to 50 mg/kg, po administered once daily for 19 days relative to vehicle-treated control; type: organism-based; conditions: in vivo, 456 h
[17] = Protein binding in human plasma; type: ADME, cell-free; conditions: read-out: PPB (converted)
Rattus norvegicus [18] = assay: (§2) AUC (0 to infinity) in CD rat at 3 mg/kg, iv by LC-MS/MS analysis; type: ADME, organism-based; parameters: dose 3 mg/kg, time infinity, route intravenous; conditions: in vivo
[19] = molecular target: Macrophage-stimulating protein receptor (Homo sapiens) (UniProt Q04912); assay: Inhibition of human Ron using KKSRGDYMTMQIG as substrate and [gamma-33P]ATP measured up to 1 uM after 1 hr
Rattus norvegicus [20] = assay: (§3) Volume of distribution at steady state in CD rat at 3 mg/kg, iv by LC-MS/MS analysis; type: ADME, organism-based; conditions: in vivo
[21] = molecular target: T1, ALK tyrosine kinase receptor; assay: Inhibition of ALK phosphorylation in mouse xenografted with human KARPAS299 cells assessed as p-ALK level at 25 mg/kg, po administered as single dose measured after 10 hrs relative to 2 hrs vehicle-treated tumor; type: organism-based; parameters: scale not given: the % may be the effect or the level left; conditions: KARPAS-299
Target sequence in this assay (Q9UM73 19-1620 limits assumed): as above

Homo sapiens [22] = species on record: Homo sapiens; assay: Inhibition of human EML4/ALK I1171N mutant
[23] = Aqueous solubility of the compound at physiological pH; type: physicochemical; conditions: buffer
cells [24] = conditions: Homo sapiens, U-937, 72 h
Description: Antiproliferative activity against human ALK-negative U937 cells assessed as reduction in cell viability measured after 72 hrs by CellTiter 96 aqueous one solution cell proliferation assay

KARPAS-299 [25] = assay: Antitumor activity against human KARPAS299 cells xenografted in SCID/beige mouse assessed as tumor growth inhibition administered orally once daily for 13 days relative to untreated control; type: functional, cell-based
[26] = AUC (0 to 24 hrs) in mouse at 10 mg/kg, po by LC-MS/MS analysis; type: ADME, organism-based; parameters: time < 24 hr, dose 10 mg/kg, route oral; conditions: in vivo
Homo sapiens [27] = species on record: Homo sapiens; assay: Inhibition of human EML4/ALK […] mutant
[28] = molecular target: Hepatocyte growth factor receptor (Homo sapiens) (UniProt P08581); assay: Inhibition of human c-Met using [KKKSPGEYVNIEFG as substrate and [gamma-33P]ATP up to 1 uM measured after 1 hr
cells [29] = conditions: Homo sapiens, KARPAS-299, 72 h
Description: Antiproliferative activity against human ALK-positive KARPAS299 cells assessed as reduction in cell viability measured after 72 hrs by CellTiter 96 aqueous one solution cell proliferation assay

[30] = Oral bioavailability in CD rat at 10 mg/kg by LC-MS/MS analysis; type: ADME, organism-based; conditions: in vivo
[31] = molecular target: T1, ALK tyrosine kinase receptor; assay: Inhibition of ALK phosphorylation in mouse xenografted with human KARPAS299 cells assessed as p-ALK level at 25 mg/kg, po administered as single dose measured after 16 hrs relative to 2 hrs vehicle-treated tumor; type: organism-based; parameters: scale not given: the % may be the effect or the level left; conditions: KARPAS-299
Target sequence in this assay (Q9UM73 19-1620 limits assumed): as above

[32] = Protein binding in rat plasma; type: ADME, cell-free; conditions: read-out: PPB (converted)
[33] = Cmax in mouse at 10 mg/kg, po by LC-MS/MS analysis; type: ADME, organism-based; parameters: dose 10 mg/kg, route oral; conditions: in vivo
[34] = molecular target: Insulin-like growth factor 1 receptor (Homo sapiens, UniProt P08069)
[35] = molecular target: T1, ALK tyrosine kinase receptor
Description: Inhibition of human ALK using poly[Glu:Tyr] (4:1) as substrate and [gamma-33P]ATP measured after 1 hr

[36] = as §1; type: ADME, organism-based; conditions: CD, in vivo
[37] = Clearance in CD rat at 3 mg/kg, iv by LC-MS/MS analysis; type: ADME, organism-based; conditions: in vivo
[38] = as §2; type: ADME, organism-based; parameters: dose 3 mg/kg, time infinity, route intravenous; conditions: CD, in vivo
[39] = as §3; type: ADME, organism-based; conditions: CD, in vivo, read-out: Vdss
KARPAS-299 [40] = assay: Antitumor activity against human KARPAS299 cells expressing […] fusion protein xenografted in SCID/beige mouse assessed as tumor stasis at 50 mg/kg, po administered once daily for 13 days; type: functional, organism-based

Chain of Insulin-like growth factor 1 receptor (P08069 31-736 limits assumed): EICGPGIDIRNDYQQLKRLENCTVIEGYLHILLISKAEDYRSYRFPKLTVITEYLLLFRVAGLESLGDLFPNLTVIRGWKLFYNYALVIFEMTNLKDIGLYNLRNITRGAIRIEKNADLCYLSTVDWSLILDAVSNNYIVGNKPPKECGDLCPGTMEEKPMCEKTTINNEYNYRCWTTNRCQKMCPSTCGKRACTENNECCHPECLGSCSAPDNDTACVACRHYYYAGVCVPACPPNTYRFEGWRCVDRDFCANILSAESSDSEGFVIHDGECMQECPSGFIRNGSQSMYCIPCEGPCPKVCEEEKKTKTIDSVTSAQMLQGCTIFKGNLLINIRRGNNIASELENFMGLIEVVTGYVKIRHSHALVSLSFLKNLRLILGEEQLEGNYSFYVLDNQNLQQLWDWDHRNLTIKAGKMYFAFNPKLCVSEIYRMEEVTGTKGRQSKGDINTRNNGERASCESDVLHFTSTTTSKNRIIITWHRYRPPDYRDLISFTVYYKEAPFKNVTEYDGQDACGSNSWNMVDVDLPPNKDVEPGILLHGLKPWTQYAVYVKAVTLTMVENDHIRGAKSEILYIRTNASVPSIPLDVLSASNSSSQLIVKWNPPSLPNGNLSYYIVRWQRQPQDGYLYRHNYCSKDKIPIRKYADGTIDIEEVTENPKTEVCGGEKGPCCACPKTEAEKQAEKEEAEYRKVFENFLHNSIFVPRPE
Chain of Insulin-like growth factor 1 receptor (P08069 741-1367 limits assumed): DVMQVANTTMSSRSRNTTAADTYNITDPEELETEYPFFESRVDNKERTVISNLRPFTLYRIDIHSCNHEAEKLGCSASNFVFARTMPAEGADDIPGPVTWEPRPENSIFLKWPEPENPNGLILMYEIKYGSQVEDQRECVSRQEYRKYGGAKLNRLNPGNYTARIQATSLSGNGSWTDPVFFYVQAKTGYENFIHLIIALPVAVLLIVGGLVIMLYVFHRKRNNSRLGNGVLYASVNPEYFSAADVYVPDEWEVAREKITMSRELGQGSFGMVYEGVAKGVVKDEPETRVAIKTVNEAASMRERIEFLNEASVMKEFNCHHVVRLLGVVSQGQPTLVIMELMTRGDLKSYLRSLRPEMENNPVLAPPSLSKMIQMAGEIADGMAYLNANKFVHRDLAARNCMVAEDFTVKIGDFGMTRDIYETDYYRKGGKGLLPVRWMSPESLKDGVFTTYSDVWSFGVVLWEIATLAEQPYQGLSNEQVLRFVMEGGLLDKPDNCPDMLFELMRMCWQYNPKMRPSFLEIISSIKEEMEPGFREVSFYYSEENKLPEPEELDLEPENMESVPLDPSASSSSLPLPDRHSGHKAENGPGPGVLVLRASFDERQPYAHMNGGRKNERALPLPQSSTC
Chain of Insulin receptor (P06213 28-758 limits assumed): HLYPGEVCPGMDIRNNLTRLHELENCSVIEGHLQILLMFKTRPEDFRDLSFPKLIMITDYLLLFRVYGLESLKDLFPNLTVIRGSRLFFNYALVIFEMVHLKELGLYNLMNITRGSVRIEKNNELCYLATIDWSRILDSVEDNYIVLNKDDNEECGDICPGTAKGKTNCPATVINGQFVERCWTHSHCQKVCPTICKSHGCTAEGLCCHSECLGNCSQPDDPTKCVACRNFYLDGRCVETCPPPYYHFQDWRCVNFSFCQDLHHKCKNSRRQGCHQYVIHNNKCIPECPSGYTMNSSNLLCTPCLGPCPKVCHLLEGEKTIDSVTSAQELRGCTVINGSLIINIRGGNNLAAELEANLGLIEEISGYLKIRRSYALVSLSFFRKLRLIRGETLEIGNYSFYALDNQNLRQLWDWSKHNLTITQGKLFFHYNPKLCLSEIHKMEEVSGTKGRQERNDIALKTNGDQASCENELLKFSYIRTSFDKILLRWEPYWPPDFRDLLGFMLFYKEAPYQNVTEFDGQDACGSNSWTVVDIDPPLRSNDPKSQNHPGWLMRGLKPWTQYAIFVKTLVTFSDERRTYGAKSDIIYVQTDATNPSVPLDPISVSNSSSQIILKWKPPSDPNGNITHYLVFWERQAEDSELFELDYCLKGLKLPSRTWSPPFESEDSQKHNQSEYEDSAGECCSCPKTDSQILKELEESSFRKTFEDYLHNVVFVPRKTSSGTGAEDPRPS
Chain of Insulin receptor (P06213 763-1382 limits assumed): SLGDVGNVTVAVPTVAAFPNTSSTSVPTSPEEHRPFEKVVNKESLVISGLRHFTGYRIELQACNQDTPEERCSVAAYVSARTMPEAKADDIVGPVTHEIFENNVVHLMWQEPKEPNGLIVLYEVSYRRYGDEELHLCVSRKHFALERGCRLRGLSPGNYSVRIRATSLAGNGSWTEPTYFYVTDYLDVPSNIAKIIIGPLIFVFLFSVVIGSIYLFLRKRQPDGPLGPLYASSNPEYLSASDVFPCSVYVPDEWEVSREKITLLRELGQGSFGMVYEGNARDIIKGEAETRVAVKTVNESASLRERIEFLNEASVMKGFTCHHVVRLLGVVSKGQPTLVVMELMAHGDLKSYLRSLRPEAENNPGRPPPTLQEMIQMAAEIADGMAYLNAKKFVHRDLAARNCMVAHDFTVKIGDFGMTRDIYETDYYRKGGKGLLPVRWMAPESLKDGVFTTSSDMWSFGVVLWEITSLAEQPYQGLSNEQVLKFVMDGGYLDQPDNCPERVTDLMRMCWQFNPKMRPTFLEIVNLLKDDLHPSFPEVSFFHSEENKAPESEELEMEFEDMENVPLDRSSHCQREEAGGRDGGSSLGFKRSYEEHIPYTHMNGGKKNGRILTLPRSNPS

Cmax [1]: 305 ng/mL
half-life [3]: 3.4 h
inhibition (Homo sapiens [4]): Active
Activity [5]: 39%
fraction unbound [6]: 0.36
half-life [8]: 5.8 h
Tmax [10]: 4 h
logD [11]: 3.02
AUC(0-inf) [13]: 3950 ng·h/mL
t1/2 (Rattus norvegicus [15]): 4.8 h
IC50 (Insulin receptor): 196 nM
fraction unbound [17]: 0.34
AUC (Rattus norvegicus [18]): 2268 ng·h/mL
inhibition [19]: inactive
Vdss (Rattus norvegicus [20]): 7.8 L/kg
Activity [21]: 1%
inhibition (Homo sapiens [22]): Active
solubility [23]: 337 µg/mL (≈ 577 µM)
IC50 (cells [24]): 3190 nM
AUC(0-t) at 24 h [26]: 5770 ng·h/mL
inhibition (Homo sapiens [27]): Active
inhibition [28]: inactive
IC50 (cells [29]): 29 nM
bioavailability [30]: 52%
Activity [31]: 7%
fraction unbound [32]: 0.27
Cmax [33]: 448 ng/mL
IC50 [34]: 24.9 nM
Structure (SMILES): COc1cc(N2CCC(N3CCN(C)CC3)CC2)ccc1Nc1ncc(Cl)c(Nc2ccccc2P(C)(C)=O)n1 [BRIGATINIB]
inhibition in vivo at 50 mg/kg (animal or person [2]): -11%
inhibition in vivo at 25 mg/kg (animal or person [7]): 12%
Activity (KARPAS-299 [9]): Active
Activity (NCI-H3122): Dose-dependent effect
Activity (Mus musculus [12]): Non-toxic
inhibition in vivo at 10 mg/kg (animal or person [14]): 50%
Activity (Mus musculus [16]): Non-toxic
TGI (KARPAS-299 [25]): Dose-dependent effect
GI50 (cells [29]): 10 nM

Cmax [1]: 353 ng/mL
half-life [3]: 3.4 h
Activity [5]: 104%
half-life [8]: 3.1 h
IC50 [35]: 0.88 nM
Tmax [10]: 6 h
AUC(0-inf) [13]: 4570 ng·h/mL
half-life [36]: 3.6 h
IC50 (Insulin receptor): 130 nM
clearance [37]: 5.83 mL/min/kg
AUC(0-inf) [38]: 8620 ng·h/mL
Vd [39]: 1.46 L/kg
Activity [21]: 13%
IC50 (cells [24]): 2720 nM
AUC(0-t) at 24 h [26]: 6490 ng·h/mL
IC50 (cells [29]): 29.9 nM
bioavailability [30]: 16%
Activity [31]: 60%
Cmax [33]: 498 ng/mL
IC50 [34]: 31.6 nM
Structure (SMILES): COc1cc(N2CCC(CN3CCC3)CC2)ccc1Nc1ncc(Cl)c(Nc2ccccc2P(C)(C)=O)n1

Cmax [1]: 601 ng/mL
half-life [3]: 2.5 h
Activity [5]: 118%
half-life [8]: 5 h
IC50 [35]: 0.38 nM
Tmax [10]: 4 h
AUC(0-inf) [13]: 5670 ng·h/mL
half-life [36]: 4 h
IC50 (Insulin receptor): 57.2 nM
clearance [37]: 31.8 mL/min/kg
AUC(0-inf) [38]: 1550 ng·h/mL
Vd [39]: 8.55 L/kg
Activity [21]: 1%
IC50 (cells [24]): 3560 nM
AUC(0-t) at 24 h [26]: 3450 ng·h/mL
IC50 (cells [29]): 19.2 nM
bioavailability [30]: 110%
Activity [31]: 69%
Cmax [33]: 421 ng/mL
IC50 [34]: 8.2 nM
Structure (SMILES): COc1cc(C2CCN(C)CC2)ccc1Nc1ncc(Cl)c(Nc2ccccc2P(C)(C)=O)n1

Cmax [1]: 254 ng/mL
half-life [3]: 12.5 h
Activity [5]: 94%
half-life [8]: 2.7 h
IC50 [35]: 0.18 nM
Tmax [10]: 6 h
AUC(0-inf) [13]: 4060 ng·h/mL
half-life [36]: 6.6 h
IC50 (Insulin receptor): 90.6 nM
clearance [37]: 15.2 mL/min/kg
AUC(0-inf) [38]: 3090 ng·h/mL
Vd [39]: 6.12 L/kg
Activity [21]: 2%
IC50 (cells [24]): 1590 nM
AUC(0-t) at 24 h [26]: 5180 ng·h/mL
IC50 (cells [29]): 28.3 nM
bioavailability [30]: 39%
Activity [31]: 14%
Cmax [33]: 418 ng/mL
IC50 [34]: 20.3 nM
Structure (SMILES): COc1cc(N2CCN(C)CC2)ccc1Nc1ncc(Cl)c(Nc2ccccc2P(C)(C)=O)n1
inhibition in vivo at 50 mg/kg (animal or person [2]): 1.4%
inhibition in vivo at 25 mg/kg (animal or person [7]): 41%
Activity (KARPAS-299 [40]): Active
Activity (Mus musculus [12]): Non-toxic
inhibition in vivo at 10 mg/kg (animal or person [14]): 81%
TGI (KARPAS-299 [25]): Dose-dependent effect
